Assay results published in patent publication US8178506B2, “Oligomeric compounds and compositions for use in modulation of small non-coding RNAs” (Regulus Therapeutics Inc., priority 2003, dated 2012).
“And” between values parts separate entries of the source, which are not always exact repeats. Equal values may be shown once. In the oligonucleotide strings, read from the 5' end, every base follows the letter of its sugar. An asterisk marks phosphorothioate; unmarked linkages are phosphodiester. Other units and linkages are bracketed, terminal groups are in braces. A string of capitals states the bases alone. e = 2'-O-(2-methoxyethyl) (MOE); [5mC] = 5-methylcytosine; d = 2'-deoxy (DNA)

Tested on: HeLa cells
Experiment: Cell cycle assay in HeLa cells
Type: cell-based, human
[1] = HeLa cells, 150 nM oligomeric compound, 24 hours, relative to untreated control (UTC = 100)
[2] = HeLa cells, 150 nM oligomeric compound, 48 hours after treatment, relative to untreated control (UTC=100)

Row | Substance | % cells aneuploid [1] | % cells in cell cycle phase G1 [1] | % cells in cell cycle phase G2/M [1] | % cells in cell cycle phase S [1] | % cells in cell cycle phase subG1 [1] | % cells in cell cycle phase: G1 [2] | % cells in cell cycle phase: G2/M [2] | % cells in cell cycle phase: S [2] | % cells in cell cycle phase: aneuploid [2] | % cells in cell cycle phase: subG1 [2] | phase of the cell cycle in which cells arrest or delay (HeLa, 150 nM, 48 hours)
1 | 340927 (antisense eT*eG*eA*eG*e[5mC]*dT*dA*d[5mC]*dA*dG*dT*dG*d[5mC]*dT*dT*e[5mC]*eA*eT*e[5mC]*eT*e[5mC]*eA) [compound 340927] | 88% and 87% | 121% and 128% | 111% and 106% | 75% and 71% | 118% and 131% | 91% | 121% and 122% | 107% | 113% and 108% | 95% and 83% | 
2 | ACTTTCGGTTATCTAGCTTTA [ISIS 327892] (chemistry not given here) [uniform 2′-MOE PS; targets mir-131-2/mir-9] |  |  |  |  |  |  |  |  |  |  | G2/M- and S-phases
